In US8338565B2, “Macrocyclic compounds for inhibition of tumor necrosis factor alpha” (Ensemble Therapeutics Corporation, priority 2008, dated 2012):
Numbered stars: 1 amine (or outer) side, 2 acyl side, 3 side chain; on linkers, the order of the positions; unused ones are H or OH. Bridge positions count the residues as written; N and C are the ends. Square brackets hold non-standard residues; d marks the D form. Peptide text beside a SMILES is read from it. * marks the point of attachment. Bip = N[C@@H](Cc1ccc(-c2ccccc2)cc1)C(=O)O; dBip = N[C@H](Cc1ccc(-c2ccccc2)cc1)C(=O)O; Phe(4-NH2) = Nc1ccc(C[C@H](N)C(=O)O)cc1; dAla(2-furyl) = N[C@H](Cc1ccco1)C(=O)O; d(β3hF) = N[C@@H](CC(=O)O)Cc1ccccc1; d(hPhe) = N[C@H](CCc1ccccc1)C(=O)O; d2Thi = N[C@H](Cc1cccs1)C(=O)O; Suc = O=C(CCC(=O)[*:2])[*:1]; 3Abz = Nc1cccc(C(=O)O)c1; Ac3c = NC1(C(=O)O)CC1; Boc = CC(C)(C)OC(=O)*; Aib = CC(C)(N)C(=O)O; Inp = O=C(O)C1CCNCC1; GABA = NCCCC(=O)O; OtBu = CC(C)(C)O*

target: T1, TNFα / TNFα receptor (TNFα R1/Fc) (Homo sapiens, UniProt P01375); assay: Inhibition of binding of TNFα to the TNFα receptor (plate ELISA competition); settings: Activity (IC50, inhibition of TNFα binding to TNFα R1/Fc), Table 2
T1 construct: purchased R&D Systems
Outline: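 Plates were coated with TNFα at 15 nM. Test compound and 8.33 nM receptor-Fc (PBST, 2% DMSO) were first mixed in solution for 30 min at room temperature, then transferred to the plates for another 30 min. Competition was read by absorbance at 450 nm after HRP anti-human IgG Fc detection with TMB.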

T1 sequence (P01375 77-233 limits assumed, species assumed): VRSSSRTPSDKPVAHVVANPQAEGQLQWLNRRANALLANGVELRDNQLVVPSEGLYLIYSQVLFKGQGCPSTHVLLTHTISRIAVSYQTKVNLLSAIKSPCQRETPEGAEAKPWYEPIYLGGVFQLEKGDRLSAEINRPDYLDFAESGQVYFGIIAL

Structure (SMILES)	IC50 [µM]
O=C1COc2ccc(cc2)C[C@@H](C(=O)N[C@@H](Cc2ccccc2)C(=O)O)NC(=O)[C@H](CCc2ccccc2)NC(=O)[C@@H](Cc2ccc(-c3ccccc3)cc2)NC(=O)[C@H](Cc2ccncc2)N1 [Compound 554]	< 10

same assay, conditions: Table 2; read-out: Activity (IC50, inhibition of TNFα binding to TNFα R1/Fc)

Structure (SMILES)	IC50 [µM]
O=C1CCC(=O)N[C@H](Cc2cccs2)C(=O)N[C@@H](Cc2ccc(-c3ccccc3)cc2)C(=O)N[C@H](CCc2ccccc2)C(=O)N[C@H](C(=O)O)Cc2ccc(cn2)N1 [Compound 547]	< 10
O=C1COc2ccc(cc2)C[C@@H](C(=O)N[C@H](Cc2ccccc2)C(=O)O)NC(=O)[C@H](Cc2ccc(O)cc2)NC(=O)[C@@H](Cc2ccc(-c3ccccc3)cc2)NC(=O)[C@H](Cc2cccs2)N1 [Compound 565]	< 10
O=C1CCC(=O)N[C@H](Cc2cccs2)C(=O)N[C@@H](Cc2ccc(-c3ccccc3)cc2)C(=O)N[C@H](CCc2ccccc2)C(=O)N[C@H](C(=O)NC2(C(=O)O)CC2)Cc2ccc(cc2)N1 [Compound 451] ([d2Thi][Bip][d(hPhe)][Phe(4-NH2)][Ac3c]-OH; linker N-4 via Suc)	30 to 100
COc1ccc(-c2ccc(C[C@@H]3NC(=O)[C@@H](CCc4ccccc4)NC(=O)CCC(=O)Nc4ccc(cc4)C[C@@H](C(=O)O)NC(=O)[C@@H](Cc4ccccc4)NC3=O)cc2)cc1 [Compound 168]	30 to 100
O=C1COc2ccc(cc2)C[C@@H](C(=O)O)NC(=O)[C@H](Cc2ccccc2)NC(=O)[C@H](Cc2ccc(-c3ccc(C(=O)O)cc3)cc2)NC(=O)[C@H](Cc2cccs2)N1 [Compound 361]	> 100
O=C1COc2ccc(cc2)C[C@@H](C(=O)O)NC(=O)[C@@H](Cc2ccc(F)cc2)NC(=O)[C@H](Cc2ccc(-c3ccccc3)cc2)NC(=O)[C@@H](Cc2cccs2)N1 [Compound 532]	> 100
C[C@@H](NC(=O)[C@@H]1Cc2ccc(cc2)NC(=O)CCC(=O)N[C@H](Cc2ccccc2)C(=O)N[C@@H](Cc2ccc(-c3ccccc3)cc2)C(=O)N[C@H](CCc2ccccc2)C(=O)N1)C(=O)O [Compound 457] ([dF][Bip][d(hPhe)][Phe(4-NH2)][dA]-OH; linker N-4 via Suc)	> 100
O=C1COc2ccc(cc2)C[C@@H](C(=O)O)NC(=O)[C@H](CCc2ccccc2)NC(=O)[C@@H](Cc2ccc(-c3ccccc3)cc2)NC(=O)[C@H](Cc2cccnc2)N1 [Compound 662]	< 10
O=C1COc2ccc(cc2)C[C@@H](C(=O)O)NC(=O)[C@H](Cc2ccccc2)NC(=O)[C@@H](Cc2ccc(C(F)(F)F)cc2)NC(=O)[C@H](Cc2cccs2)N1 [Compound 397]	> 100
CC(C)(C)OC(=O)C[C@@H]1NC(=O)[C@H](Cc2ccc(-c3ccccc3)cc2)NC(=O)[C@@H](Cc2cccs2)NC(=O)CCC(=O)Nc2ccc(cc2)C[C@@H](C(=O)O)NC1=O [Compound 62] ([d2Thi][Bip]D(OtBu)[Phe(4-NH2)]-OH; linker N-4 via Suc)	> 100
N=C(N)NCCC[C@H]1NC(=O)[C@H](Cc2ccc(-c3ccccc3)cc2)NC(=O)[C@@H](Cc2cccs2)NC(=O)CCC(=O)Nc2ccc(cc2)C[C@@H](C(=O)O)NC1=O [Compound 73] ([d2Thi][Bip][dR][Phe(4-NH2)]-OH; linker N-4 via Suc)	> 100
O=C(O)C[C@H](Cc1ccccc1)NC(=O)[C@@H]1Cc2ccc(cc2)OCC(=O)N[C@@H](Cc2cccs2)C(=O)N[C@H](Cc2ccc(-c3ccccc3)cc2)C(=O)N[C@@H](CCc2ccccc2)C(=O)N1 [Compound 485]	10 to 30
O=C1COc2ccc(cc2)C[C@@H](C(=O)O)NC(=O)[C@H](CCc2ccccc2)NC(=O)[C@@H](Cc2ccc(-c3ccccc3)cc2)NC(=O)[C@H](Cc2cscn2)N1 [Compound 696]	< 10
O=C1COc2ccc(cc2)C[C@@H](C(=O)N[C@@H](CO)C(=O)O)NC(=O)[C@H](Cc2ccc(O)cc2)NC(=O)[C@@H](Cc2ccc(-c3ccccc3)cc2)NC(=O)[C@H](Cc2cccs2)N1 [Compound 563]	30 to 100
O=C1COc2ccc(cc2)C[C@@H](C(=O)O)NC(=O)[C@@H](CCc2ccccc2)NC(=O)[C@H](Cc2ccc(-c3ccccc3)cc2)NC(=O)[C@@H](Cc2ccc(O)cc2)N1 [Compound 521]	> 100
O=C1CCC(=O)N[C@H](CCc2ccccc2)C(=O)N[C@@H](Cc2ccc(-c3ccccc3)cc2)C(=O)N[C@H](Cc2ccccc2)C(=O)N[C@H](C(=O)Nc2cccc(C(=O)O)c2)Cc2ccc(cc2)N1 [Compound 352] ([d(hPhe)][Bip][dF][Phe(4-NH2)][3Abz]-OH; linker N-4 via Suc)	> 100
O=C1CCC(=O)N[C@H](Cc2cccs2)C(=O)N[C@H](Cc2ccc(-c3ccccc3)cc2)C(=O)N[C@@H](Cc2ccccc2)C(=O)N[C@H](C(=O)O)Cc2ccc(cc2)N1 [Compound 496] ([d2Thi][dBip]F[Phe(4-NH2)]-OH; linker N-4 via Suc)	> 100
O=C(O)CCCNC(=O)[C@@H]1Cc2ccc(cc2)OCC(=O)N[C@@H](Cc2c[nH]c3ccccc23)C(=O)N[C@H](Cc2ccc(-c3ccccc3)cc2)C(=O)N[C@@H](Cc2ccccc2F)C(=O)N1 [Compound 718]	< 10

Now from value to molecule:

IC50 [µM]	Structure (SMILES)
10 to 30	O=C(O)[C@@H]1Cc2ccc(cc2)NC(=O)[C@H](O)[C@@H](O)C(=O)N[C@H](Cc2cccs2)C(=O)N[C@@H](Cc2ccc(-c3ccccc3)cc2)C(=O)N[C@H](Cc2ccc(Cl)cc2Cl)C(=O)N1 [Compound 287]
< 10	O=C1COc2ccc(cc2)C[C@@H](C(=O)O)NC(=O)[C@H](CCc2ccccc2)NC(=O)[C@@H](Cc2ccc(-c3ccccc3)cc2)NC(=O)[C@H](Cc2ccc(F)cc2)N1 [Compound 679]
10 to 30	O=C1COc2ccc(cc2)C[C@@H](C(=O)O)NC(=O)[C@@H](CCc2ccccc2)NC(=O)[C@H](Cc2ccc(C(F)(F)F)cc2)NC(=O)[C@@H](Cc2ccc(C(F)(F)F)cc2)N1 [Compound 146]
> 100	O=C1CCC(=O)N[C@H](Cc2cccs2)C(=O)N[C@@H](Cc2ccc(-c3ccccc3)cc2)C(=O)N[C@H](Cc2ccccc2)CC(=O)N[C@H](C(=O)O)Cc2ccc(cc2)N1 [Compound 56] ([d2Thi][Bip][d(β3hF)][Phe(4-NH2)]-OH; linker N-4 via Suc)
> 100	CC(C)(NC(=O)[C@@H]1Cc2ccc(cc2)NC(=O)CCC(=O)N[C@H](Cc2cccs2)C(=O)N[C@@H](Cc2ccc(-c3ccccc3)cc2)C(=O)N[C@H](CCc2ccccc2)C(=O)N1)C(=O)O [Compound 452] ([d2Thi][Bip][d(hPhe)][Phe(4-NH2)][Aib]-OH; linker N-4 via Suc)
> 100	O=C(O)[C@@H]1Cc2ccc(cc2)NC(=O)[C@H](O)[C@@H](O)C(=O)N[C@H](c2ccccc2)C(=O)N[C@@H](Cc2ccc(-c3ccccc3)cc2)C(=O)N[C@H](Cc2ccccc2)C(=O)N1 [Compound 312]
> 100	O=C1COc2ccc(cc2)C[C@@H](C(=O)O)NC(=O)[C@@H](Cc2ccc(C(F)(F)F)cc2)NC(=O)[C@H](Cc2ccc(-c3ccccc3)cc2)NC(=O)[C@@H](Cc2cccs2)N1 [Compound 531]
< 10	O=C1COc2ccc(cc2)C[C@H](C(=O)N[C@H](CCc2ccccc2)C(=O)O)NC(=O)[C@H](Cc2c[nH]c3ccccc23)NC(=O)[C@@H](Cc2ccc(-c3ccccc3)cc2)NC(=O)[C@H](Cc2c[nH]c3ccccc23)N1 [Compound 739]
10 to 30	O=C1CCC(=O)N[C@H](Cc2cccs2)C(=O)N[C@@H](Cc2ccc(-c3ccccc3)cc2)C(=O)N[C@H](Cc2ccco2)C(=O)N[C@H](C(=O)O)Cc2ccc(cc2)N1 [Compound 48] ([d2Thi][Bip][dAla(2-furyl)][Phe(4-NH2)]-OH; linker N-4 via Suc)
> 100	CC(C)(C)Oc1ccc(C[C@@H]2NC(=O)COc3ccc(cc3)C[C@@H](C(=O)O)NC(=O)[C@H](Cc3ccccc3)NC(=O)[C@H](Cc3ccc(-c4ccccc4)cc3)NC2=O)cc1 [Compound 489]
> 100	O=C1CCC(=O)N[C@H](Cc2cccs2)C(=O)N[C@@H](Cc2ccc(-c3ccccc3)cc2)C(=O)N[C@H](Cc2ccccc2)C(=O)N[C@H](C(=O)N2CCC(C(=O)O)CC2)Cc2ccc(cc2)N1 [Compound 23] ([d2Thi][Bip][dF][Phe(4-NH2)][Inp]-OH; linker N-4 via Suc)
10 to 30	COC(=O)[C@@H](CC(=O)O)NC(=O)[C@@H]1Cc2ccc(cc2)NC(=O)CCC(=O)N[C@H](CCc2ccccc2)C(=O)N[C@@H](Cc2ccc(-c3ccccc3)cc2)C(=O)N[C@H](Cc2ccccc2)C(=O)N1 [Compound 351] ([d(hPhe)][Bip][dF][Phe(4-NH2)][dD]-OMe; linker N-4 via Suc)
< 10	O=C(O)CCCNC(=O)[C@@H]1Cc2ccc(cc2)OCC(=O)N[C@@H](Cc2c[nH]c3ccccc23)C(=O)N[C@H](Cc2ccc(-c3ccccc3)cc2)C(=O)N[C@@H](CCc2ccccc2)C(=O)N1 [Compound 720]
30 to 100	CC(C)(C)OC(=O)NCCCC(=O)N[C@H]1CC(=O)Nc2ccc(cc2)C[C@@H](C(=O)O)NC(=O)[C@@H](Cc2ccccc2)NC(=O)[C@H](Cc2ccc(-c3ccccc3)cc2)NC(=O)[C@@H](Cc2cccs2)NC1=O [Compound 516] ({Boc-GABA}-D[d2Thi][Bip][dF][Phe(4-NH2)]-OH; lactam 1-5)
< 10	O=C1COc2ccc(cc2)C[C@@H](C(=O)N[C@H](CO)C(=O)O)NC(=O)[C@H](CCc2ccccc2)NC(=O)[C@@H](Cc2ccc(-c3ccccc3)cc2)NC(=O)[C@H](Cc2ccc(-c3ccccc3)cc2)N1 [Compound 571]
> 100	COc1cccc(C[C@@H]2NC(=O)[C@H](Cc3cccs3)NC(=O)COc3ccc(cc3)C[C@@H](C(=O)O)NC(=O)[C@H](Cc3ccccc3)NC2=O)c1 [Compound 408]
< 10	O=C(O)CCCNC(=O)[C@@H]1Cc2ccc(cc2)OCC(=O)N[C@@H](Cc2ccc(-c3ccncc3)cc2)C(=O)N[C@H](Cc2ccc(-c3ccccc3)cc2)C(=O)N[C@@H](CCc2ccccc2)C(=O)N1 [Compound 580]
> 100	N[C@H]1CC(=O)Nc2ccc(cc2)C[C@@H](C(=O)O)NC(=O)[C@@H](Cc2ccccc2)NC(=O)[C@H](Cc2ccc(-c3ccccc3)cc2)NC(=O)[C@@H](Cc2cccs2)NC1=O [Compound 371] (H-D[d2Thi][Bip][dF][Phe(4-NH2)]-OH; lactam 1-5)
